Here are results for 17 compounds from patent US10287267B2, “Isoquinolin-3-yl carboxamides and preparation and use thereof” (Samumed, LLC, priority 2016, dated 2019).

The structures appear in SMILES notation. pEC50: −log10 of the molar value.

The test system of assay [1] is Tau phosphorylation at Ser396 (pSer396). Description: Tau phosphorylation assay (pSer396 ELISA / western blot) in SH-SY5Y cells.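 Further: EC50 for reduction of Tau pSer396 in lysed cells, measured by colorimetric ELISA or chemiluminescent western blot, both using the same pSer396 antibody.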 Conditions: Homo sapiens; SH-SY5Y cells, overnight (16-18 h) exposure; read-out: pSer396 Tau EC50. In kind it is cell-based, human. A general note: ELISA stands for enzyme-linked immunosorbent assay.
The target of another assay is recombinant GSK3β kinase (Homo sapiens (Human), UniProt P49841). Description: GSK3β kinase assay (Ser/Thr 09 peptide Z-lyte FRET).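 Further: kinase activity read as coumarin to fluorescein emission ratio, 11-point threefold dilutions from 10 µM to 0.0003 µM in duplicate, unphosphorylated and phosphorylated peptide as 0% and 100% controls.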 In kind it is biochemical. Conditions: 46 μM ATP, 1 h room temperature.
Chain of recombinant GSK3β kinase (P49841 whole entry): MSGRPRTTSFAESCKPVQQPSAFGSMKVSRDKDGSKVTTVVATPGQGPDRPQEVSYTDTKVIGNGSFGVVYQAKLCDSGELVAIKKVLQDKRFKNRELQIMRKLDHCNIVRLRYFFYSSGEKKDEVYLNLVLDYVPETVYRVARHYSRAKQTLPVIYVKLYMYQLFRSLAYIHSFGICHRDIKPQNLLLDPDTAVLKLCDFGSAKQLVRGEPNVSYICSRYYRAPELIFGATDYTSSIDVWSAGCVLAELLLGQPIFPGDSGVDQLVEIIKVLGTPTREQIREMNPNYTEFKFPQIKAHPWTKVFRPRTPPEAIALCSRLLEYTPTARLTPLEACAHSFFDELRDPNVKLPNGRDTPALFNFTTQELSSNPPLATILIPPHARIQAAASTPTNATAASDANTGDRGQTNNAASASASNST
Assay [2] deals with α-smooth muscle actin (αSMA) positive LL29 cells. Nature of the assay: Inhibition of fibrotic process: αSMA in TGF-β1 treated primary human fibroblasts from IPF patients.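 On all read-outs here: controls were TGF-β1 stimulated wells with DMSO vehicle (positive) and cells given DMSO alone (negative), cultured in F12 medium with 1% fetal bovine serum.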 In kind it is cell-based. Conditions: Homo sapiens, Fibroblast; for pEC50: 96 h, Table 8, LL29 fibroblasts from IPF patients, TGF-β1 20 ng/mL, 4 days, dose-response 10 μM to 0.94 nM; for inhibition at 10 µM: read-out: percent value in parentheses beside EC50 >10 μM.

Assay [3] has as its target recombinant DYRK1A kinase (Homo sapiens (Human), UniProt Q13627). Nature of the assay: DYRK1A kinase assay (Ser/Thr 18 peptide Z-lyte FRET).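 Further: Read-out is the coumarin to fluorescein emission ratio, referenced to unphosphorylated (0%) and phosphorylated (100%) Ser/Thr 18 peptide controls, values from dose-response curves by non-linear regression.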 The conditions noted are these: 30 μM ATP, 1 h room temperature. Type of assay: biochemical.
The test system of assay [4] is Wnt pathway (Sp5-Luc reporter, TCF/LEF binding sites) in SW480 colon carcinoma cells. Nature of the assay: Screening assay for Wnt activity: Sp5-Luc reporter gene assay.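 On all read-outs here: firefly luciferase luminescence read in stably transduced SW480 cells carrying the Sp5 promoter reporter with eight TCF/LEF sites, compounds given in 0.1% DMSO final.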 Type of assay: cell-based, human. Conditions: Homo sapiens; for pEC50: Sp5-Luc reporter, SW480 cells, 36 to 48 hours. A general note: In a reporter assay the amount or activity of a reporter protein is the signal.
Experimental: The screening assay for Wnt activity is described as follows.
Following incubation, 15 μl of BriteLite Plus luminescence reagent (Perkin Elmer) was added to each well of the 384-well assay plates. The plates were placed on an orbital shaker for 2 min and then luminescence was quantified using the Envision (Perkin Elmer) plate reader.

The subject of assay [5] is SW480 colon carcinoma cells. Description: Cell viability assay (CellTiter-Glo). Type of assay: cell-based, human. The conditions noted are these: Homo sapiens; for pEC50: 96 h, SW480 cells, CellTiter-Glo, four days incubation; for inhibition at 10 µM: SW480, read-out: percent inhibition at 10 μM. For orientation: In ATP-based viability assays light output follows the ATP content of the culture.

In a further assay the test system is IL-6. Description: IL-6 inhibition in LPS-stimulated human peripheral blood mononuclear cells (HTRF).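 On all read-outs here: IL-6 detected by HTRF with an XL665- and Cryptate-labelled anti-IL-6 antibody pair, samples run in duplicate, EC50 obtained from a four-parameter Levenberg-Marquardt curve fit.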 The conditions noted are these: Homo sapiens, PBMC; for inhibition at 10 µM: read-out: percent value in parentheses beside EC50 >10 μM; for pEC50: Table 9, huPBMCs, LPS 50 ng/mL, 22 hours, dose-response starting from 10 μM. Type of assay: cell-based.

Experimental for IL-6: After 22 hour incubation, a mixture of anti-IL6 XL665 and anti-IL-6 Cryptate diluted in reconstitution buffer (Catalog #62IL6PEC, Cisbio Inc., Bedford, Mass.) was added to each well. […] All samples were processed in duplicate. […] EC50 was determined using software generated by Dotmatics Limited (Windhill Bishops Stortford Herts, UK) using the Levenberg-Marquardt 4 parameter fitting procedure with finite different gradients.

In general, pEC50 refers to the EC50 on a negative log10 scale, so that one unit is a factor of ten. On to `Cc1nnc(-c2ccc3cnc(NC(=O)C4CCN(C(=O)c5ccccc5)CC4)cc3c2)s1` [Compound 921, 1-Benzoyl-N-(6-(5-methyl-1,3,4-thiadiazol-2-yl)isoquinolin-3-yl)piperidine-4-carboxamide], for which the pEC50 in assay [1] was 6.96; at recombinant GSK3β kinase it was 8.30; in assay [2], 7.12; in assay [3] it was 8.68; in assay [4], 6.11; in assay [5] it was 5.79. Also, the pEC50 in the assay on IL-6 was < 5.00. Besides, in the assay on IL-6, the inhibition at 10 µM worked out at 9.9%.

`Cc1nnc(-c2ccc3cnc(NC(=O)CN4CCCC4)cc3c2)s1` [Compound 932, N-(6-(5-Methyl-1,3,4-thiadiazol-2-yl)isoquinolin-3-yl)-2-(pyrrolidin-1-yl) acetamide]: the negative logarithm of the EC50 (pEC50) in assay [1] is 6.45; at recombinant GSK3β kinase, 7.85; in assay [2], 6.23; in assay [3] it was 7.77; in assay [4], 6.02; in assay [5], 5.26. Also, the negative-log EC50 (pEC50) in the assay with IL-6 is < 5.00. In addition, in the assay with IL-6, the inhibition at 10 µM was found to be 7.5%.

Take `Cc1nnc(-c2ccc3cnc(NC(=O)CN4CCCCC4)cc3c2)s1` [Compound 939, N-(6-(5-Methyl-1,3,4-thiadiazol-2-yl)isoquinolin-3-yl)-2-(piperidin-1-yl) acetamide]: the pEC50 in assay [1] was 6.56; on recombinant GSK3β kinase, 7.89; in assay [2] it was 5.94; in assay [3] it was 7.86; in assay [4], 5.68; in assay [5], < 5.00. For the same compound, the pEC50 in the assay on IL-6 is < 5.00. Further, the values for the inhibition at 10 µM (in assay [5]; with IL-6) were 31.6% and 3.6%, respectively.

Regarding `Cc1nnc(-c2ccc3cnc(NC(=O)CN4CCN(C)CC4)cc3c2)s1` [Compound 946, N-(6-(5-Methyl-1,3,4-thiadiazol-2-yl)isoquinolin-3-yl)-2-(4-methylpiperazin-1-yl)acetamide], the pEC50 was 6.24 in assay [1]; 7.42 at recombinant GSK3β kinase; 6.01 in assay [2]; 7.64 in assay [3]; 5.73 in assay [4]; < 5.00 in assay [5]. For the same compound, the pEC50 with IL-6 was < 5.00. Further, the inhibition at 10 µM in assay [5] worked out at 42.6%; with IL-6 it was 18.2%.

Turning to `Cc1nnc(-c2ccc3cnc(NC(=O)CN4CCOCC4)cc3c2)s1` [Compound 952, N-(6-(5-Methyl-1,3,4-thiadiazol-2-yl)isoquinolin-3-yl)-2-morpholinoacetamide], the negative-log EC50 (pEC50) in assay [1] was 6.57; on recombinant GSK3β kinase, 8.10; in assay [2] it was 6.13; in assay [3], 8.14; in assay [4], 5.83; in assay [5], 5.15. Besides, the pEC50 in the assay with IL-6 is < 5.00. Moreover, in the assay on IL-6, the inhibition at 10 µM was found to be 10.1%.

In the case of `Cc1nnc(-c2ccc3cnc(NC(=O)CN4C[C@H]5C[C@@H]4CO5)cc3c2)s1` [Compound 960, 2-((1R,4R)-2-Oxa-5-azabicyclo[2.2.1]heptan-5-yl)-N-(6-(5-methyl-1,3,4-thiadiazol-2-yl)isoquinolin-3-yl)acetamide], the pEC50 is 6.63 in assay [1]; 7.82 on recombinant GSK3β kinase; 6.02 in assay [2]; 7.77 in assay [3]; 5.78 in assay [4]; 5.18 in assay [5]. In addition, the negative-log EC50 (pEC50) in the assay with IL-6 is < 5.00. For the same compound, the inhibition at 10 µM in the assay with IL-6 was found to be 8.2%.

Take `Cc1nnc(-c2cc(F)c3cnc(NC(=O)CN4CCOCC4)cc3c2)s1` [Compound 963, N-(8-Fluoro-6-(5-methyl-1,3,4-thiadiazol-2-yl)isoquinolin-3-yl)-2-morpholinoacetamide]: the pEC50 in assay [1] was 6.60; at recombinant GSK3β kinase it was 8.22; in assay [2], 5.93; in assay [3] it was 7.57; in assay [4], 5.92; in assay [5] it was < 5.00. For the same compound, in the assay with IL-6, the negative-log EC50 (pEC50) is < 5.00. Besides, the figures for the inhibition at 10 µM (in assay [5]; with IL-6) were 49.2% and 8.2%, respectively.

As for `Cn1cc(-c2ccc3cnc(NC(=O)C4CCN(S(=O)(=O)c5ccccc5)CC4)cc3c2)cn1` [Compound 964, N-(6-(1-Methyl-1H-pyrazol-4-yl)isoquinolin-3-yl)-1-(phenylsulfonyl) piperidine-4-carboxamide], the pEC50 was 6.24 in assay [1]; 6.99 at recombinant GSK3β kinase; < 5.00 in assay [2]; 8.28 in assay [3]; 5.84 in assay [4]; 5.42 in assay [5]. Besides, in the assay on IL-6, the pEC50 was < 5.00. The inhibition at 10 µM in assay [2] amounted to 19.7%; in the assay on IL-6, 6.8%.

For `[2H]C([2H])([2H])N1CCN(CC(=O)Nc2cc3cc(-c4cnn(C)c4)ccc3cn2)CC1` [Compound 965, N-(6-(1-Methyl-1H-pyrazol-4-yl)isoquinolin-3-yl)-2-(4-(methyl-d3)piperazin-1-yl)acetamide], the negative logarithm of the EC50 (pEC50) in assay [1] is 6.00; at recombinant GSK3β kinase it was 7.10; in assay [2] it was 5.86; in assay [3], 7.97; in assay [4], 5.50; in assay [5], 5.06. The pEC50 in the assay with IL-6 is 5.49.

For the compound `CCN1CCC(C(=O)Nc2cc3cc(-c4cnn(C)c4)c(F)cc3cn2)CC1` [Compound 967, 1-Ethyl-N-(7-fluoro-6-(1-methyl-1H-pyrazol-4-yl)isoquinolin-3-yl) piperidine-4-carboxamide], the pEC50 in assay [1] is 6.43; at recombinant GSK3β kinase, 7.34; in assay [2], 7.10; in assay [3] it was 8.72; in assay [4], 5.35; in assay [5], 6.34. Also, the negative-log EC50 (pEC50) in the assay with IL-6 was 5.95.

Take `CN1CCN(CC(=O)Nc2cc3cc(-c4cnn(C)c4)cc(F)c3cn2)CC1` [Compound 968, N-(8-Fluoro-6-(1-methyl-1H-pyrazol-4-yl)isoquinolin-3-yl)-2-(4-methylpiperazin-1-yl)acetamide]: the pEC50 in assay [1] is 5.57; on recombinant GSK3β kinase, 7.21; in assay [2], < 5.00; in assay [3], 7.50; in assay [4], < 5.00; in assay [5], < 5.00. In addition, in the assay on IL-6, the pEC50 was 5.03. The inhibition at 10 µM in assay [2] is 24.1%; in assay [4] (SW480, read-out: percent inhibition at 10 μM), 38%; in assay [5] it was 14.5%.

Consider `CN1CCC(C(=O)Nc2cc3cc(-c4cnsc4)ccc3cn2)CC1` [Compound 970, N-(6-(Isothiazol-4-yl)isoquinolin-3-yl)-1-methylpiperidine-4-carboxamide], for which the pEC50 is 6.06 in assay [1]; 6.32 at recombinant GSK3β kinase; 5.91 in assay [2]; 8.64 in assay [3]; 5.87 in assay [4]; 5.90 in assay [5]. This compound gave a pEC50 in the assay with IL-6 of 5.95.

Turning to `[2H]C([2H])([2H])n1cc(-c2ccc3cnc(NC(=O)[C@H](C)N4CCCC4)cc3c2)cn1` [Compound 971, (S)—N-(6-(1-(methyl-d3)-1H-pyrazol-4-yl)isoquinolin-3-yl)-2-(pyrrolidin-1-yl)propanamide], the pEC50 in assay [1] was 6.72; on recombinant GSK3β kinase, 7.47; in assay [2], 6.06; in assay [3] it was 7.47; in assay [4], 6.14; in assay [5], 5.92. In addition, the pEC50 with IL-6 is 5.91.

Take `O=C(Nc1cc2cc(-c3cnco3)ccc2cn1)C1CC1` [Compound 973, N-(6-(Oxazol-5-yl)isoquinolin-3-yl)cyclopropanecarboxamide]: the negative-log EC50 (pEC50) in assay [1] is 6.99; on recombinant GSK3β kinase it was 7.70; in assay [2], 6.87; in assay [3], 8.54; in assay [4] it was 6.22; in assay [5], 6.41. This compound gave a pEC50 with IL-6 of 6.40.

Take `O=C(Nc1cc2cc(-c3cnco3)ccc2cn1)[C@H]1CCCO1` [Compound 974, (R)—N-(6-(Oxazol-5-yl)isoquinolin-3-yl)tetrahydrofuran-2-carboxamide]: the pEC50 in assay [1] was 5.70; at recombinant GSK3β kinase it was 7.02; in assay [2], < 5.00; in assay [3] it was 7.87; in assay [4], 5.43; in assay [5], 5.50. Besides, the pEC50 in the assay with IL-6 is < 5.00. Also, the inhibition at 10 µM in assay [2] amounted to 49.6%; in the assay with IL-6, 45.9%.

In the case of `O=C(Nc1cc2cc(-c3cnco3)ccc2cn1)[C@@H]1CCCNC1` [Compound 975, (R)—N-(6-(Oxazol-5-yl)isoquinolin-3-yl)piperidine-3-carboxamide], the negative logarithm of the EC50 (pEC50) in assay [1] was 5.34; at recombinant GSK3β kinase, 5.96; in assay [2], 6.86; in assay [3] it was 7.92; in assay [4], 6.37; in assay [5], 6.48. For the same compound, the negative-log EC50 (pEC50) in the assay on IL-6 is 6.37.

For `O=C(Nc1cc2cc(-c3cnco3)ccc2cn1)C1CCN(C(=O)CN2CCCC2)CC1` [Compound 977, N-(6-(Oxazol-5-yl)isoquinolin-3-yl)-1-(2-(pyrrolidin-1-yl)acetyl)piperidine-4-carboxamide], the pEC50 in assay [1] was 6.37; at recombinant GSK3β kinase, 6.61; in assay [2], 6.87; in assay [3], 8.49; in assay [4], 6.06; in assay [5], 6.21. Moreover, in the assay on IL-6, the negative-log EC50 (pEC50) was 6.39.
